7 molecules from patent publication US20250136578A1 (Kolm Therapeutics Inc., priority 2023, published 2025) can be followed below.

pEC50, pIC50: −log10 of the molar value.

For one test, the target named is AR / CBP ternary complex (Homo sapiens, UniProt P10275+Q92793). The test can be described thus: Ternary complex formation assay (sandwich ELISA, AR capture, CBP antibody detection) in VCaP cell lysates. The format is cell-based. The conditions noted are these: treated 1.5 hours, rabbit CBP or p300 antibody detection, average, read-out: Average Ternary Complex. The method in brief:
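VCaP cells in 5% charcoal-stripped FBS were cultured ≥3 days and then given bifunctional compound for 1.5 h. Lysates went onto AR-antibody-coated plates. Bound CBP (or p300) was detected with a rabbit antibody plus HRP anti-rabbit, using QuantaRed chemifluorescence (ex 570/em 585) read immediately, at 5 min and at 15 min.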
In general terms: ELISA stands for enzyme-linked immunosorbent assay.

A further test has as its system VCaP cells. The test can be described thus: VCaP growth inhibition assay (CTG). The format is cell-based. The conditions noted are these: Homo sapiens, 216 h, 30 pM R1881, 9 days. The gist of the method:
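VCaP cells in phenol red-free DMEM with 5% charcoal-stripped serum were stimulated with 30 pM R1881 (final) and treated with compound from 100 nM to 10 fM final (1:5 dilutions) for 9 days at 37 °C. Viability was read by CellTiter-Glo luminescence, and IC50 came from 4-parameter logistic fits.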

Chain of AR / CBP ternary complex (P10275 whole entry): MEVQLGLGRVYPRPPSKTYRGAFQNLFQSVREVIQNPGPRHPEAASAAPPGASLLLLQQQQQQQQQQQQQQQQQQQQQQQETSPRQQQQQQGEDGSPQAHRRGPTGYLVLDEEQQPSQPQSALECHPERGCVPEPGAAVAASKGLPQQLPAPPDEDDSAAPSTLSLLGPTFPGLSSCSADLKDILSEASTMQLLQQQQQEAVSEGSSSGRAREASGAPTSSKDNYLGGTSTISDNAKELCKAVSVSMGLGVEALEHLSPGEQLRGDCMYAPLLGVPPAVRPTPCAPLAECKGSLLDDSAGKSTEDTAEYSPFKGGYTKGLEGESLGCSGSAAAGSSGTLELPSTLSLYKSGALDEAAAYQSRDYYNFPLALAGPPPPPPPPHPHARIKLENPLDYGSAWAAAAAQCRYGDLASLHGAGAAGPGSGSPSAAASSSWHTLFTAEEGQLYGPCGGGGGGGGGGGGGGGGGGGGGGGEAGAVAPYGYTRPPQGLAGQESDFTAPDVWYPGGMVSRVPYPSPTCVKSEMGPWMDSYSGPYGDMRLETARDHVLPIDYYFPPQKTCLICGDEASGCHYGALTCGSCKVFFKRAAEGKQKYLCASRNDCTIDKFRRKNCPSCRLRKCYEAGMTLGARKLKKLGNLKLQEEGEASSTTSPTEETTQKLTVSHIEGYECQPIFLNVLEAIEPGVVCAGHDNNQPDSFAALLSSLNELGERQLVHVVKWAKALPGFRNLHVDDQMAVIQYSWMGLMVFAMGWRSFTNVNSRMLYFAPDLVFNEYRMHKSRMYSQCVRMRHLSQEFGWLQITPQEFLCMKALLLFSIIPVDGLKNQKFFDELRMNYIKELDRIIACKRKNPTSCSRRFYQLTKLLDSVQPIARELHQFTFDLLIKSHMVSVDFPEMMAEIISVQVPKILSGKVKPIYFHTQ
Chain of AR / CBP ternary complex (Q92793 2-2442): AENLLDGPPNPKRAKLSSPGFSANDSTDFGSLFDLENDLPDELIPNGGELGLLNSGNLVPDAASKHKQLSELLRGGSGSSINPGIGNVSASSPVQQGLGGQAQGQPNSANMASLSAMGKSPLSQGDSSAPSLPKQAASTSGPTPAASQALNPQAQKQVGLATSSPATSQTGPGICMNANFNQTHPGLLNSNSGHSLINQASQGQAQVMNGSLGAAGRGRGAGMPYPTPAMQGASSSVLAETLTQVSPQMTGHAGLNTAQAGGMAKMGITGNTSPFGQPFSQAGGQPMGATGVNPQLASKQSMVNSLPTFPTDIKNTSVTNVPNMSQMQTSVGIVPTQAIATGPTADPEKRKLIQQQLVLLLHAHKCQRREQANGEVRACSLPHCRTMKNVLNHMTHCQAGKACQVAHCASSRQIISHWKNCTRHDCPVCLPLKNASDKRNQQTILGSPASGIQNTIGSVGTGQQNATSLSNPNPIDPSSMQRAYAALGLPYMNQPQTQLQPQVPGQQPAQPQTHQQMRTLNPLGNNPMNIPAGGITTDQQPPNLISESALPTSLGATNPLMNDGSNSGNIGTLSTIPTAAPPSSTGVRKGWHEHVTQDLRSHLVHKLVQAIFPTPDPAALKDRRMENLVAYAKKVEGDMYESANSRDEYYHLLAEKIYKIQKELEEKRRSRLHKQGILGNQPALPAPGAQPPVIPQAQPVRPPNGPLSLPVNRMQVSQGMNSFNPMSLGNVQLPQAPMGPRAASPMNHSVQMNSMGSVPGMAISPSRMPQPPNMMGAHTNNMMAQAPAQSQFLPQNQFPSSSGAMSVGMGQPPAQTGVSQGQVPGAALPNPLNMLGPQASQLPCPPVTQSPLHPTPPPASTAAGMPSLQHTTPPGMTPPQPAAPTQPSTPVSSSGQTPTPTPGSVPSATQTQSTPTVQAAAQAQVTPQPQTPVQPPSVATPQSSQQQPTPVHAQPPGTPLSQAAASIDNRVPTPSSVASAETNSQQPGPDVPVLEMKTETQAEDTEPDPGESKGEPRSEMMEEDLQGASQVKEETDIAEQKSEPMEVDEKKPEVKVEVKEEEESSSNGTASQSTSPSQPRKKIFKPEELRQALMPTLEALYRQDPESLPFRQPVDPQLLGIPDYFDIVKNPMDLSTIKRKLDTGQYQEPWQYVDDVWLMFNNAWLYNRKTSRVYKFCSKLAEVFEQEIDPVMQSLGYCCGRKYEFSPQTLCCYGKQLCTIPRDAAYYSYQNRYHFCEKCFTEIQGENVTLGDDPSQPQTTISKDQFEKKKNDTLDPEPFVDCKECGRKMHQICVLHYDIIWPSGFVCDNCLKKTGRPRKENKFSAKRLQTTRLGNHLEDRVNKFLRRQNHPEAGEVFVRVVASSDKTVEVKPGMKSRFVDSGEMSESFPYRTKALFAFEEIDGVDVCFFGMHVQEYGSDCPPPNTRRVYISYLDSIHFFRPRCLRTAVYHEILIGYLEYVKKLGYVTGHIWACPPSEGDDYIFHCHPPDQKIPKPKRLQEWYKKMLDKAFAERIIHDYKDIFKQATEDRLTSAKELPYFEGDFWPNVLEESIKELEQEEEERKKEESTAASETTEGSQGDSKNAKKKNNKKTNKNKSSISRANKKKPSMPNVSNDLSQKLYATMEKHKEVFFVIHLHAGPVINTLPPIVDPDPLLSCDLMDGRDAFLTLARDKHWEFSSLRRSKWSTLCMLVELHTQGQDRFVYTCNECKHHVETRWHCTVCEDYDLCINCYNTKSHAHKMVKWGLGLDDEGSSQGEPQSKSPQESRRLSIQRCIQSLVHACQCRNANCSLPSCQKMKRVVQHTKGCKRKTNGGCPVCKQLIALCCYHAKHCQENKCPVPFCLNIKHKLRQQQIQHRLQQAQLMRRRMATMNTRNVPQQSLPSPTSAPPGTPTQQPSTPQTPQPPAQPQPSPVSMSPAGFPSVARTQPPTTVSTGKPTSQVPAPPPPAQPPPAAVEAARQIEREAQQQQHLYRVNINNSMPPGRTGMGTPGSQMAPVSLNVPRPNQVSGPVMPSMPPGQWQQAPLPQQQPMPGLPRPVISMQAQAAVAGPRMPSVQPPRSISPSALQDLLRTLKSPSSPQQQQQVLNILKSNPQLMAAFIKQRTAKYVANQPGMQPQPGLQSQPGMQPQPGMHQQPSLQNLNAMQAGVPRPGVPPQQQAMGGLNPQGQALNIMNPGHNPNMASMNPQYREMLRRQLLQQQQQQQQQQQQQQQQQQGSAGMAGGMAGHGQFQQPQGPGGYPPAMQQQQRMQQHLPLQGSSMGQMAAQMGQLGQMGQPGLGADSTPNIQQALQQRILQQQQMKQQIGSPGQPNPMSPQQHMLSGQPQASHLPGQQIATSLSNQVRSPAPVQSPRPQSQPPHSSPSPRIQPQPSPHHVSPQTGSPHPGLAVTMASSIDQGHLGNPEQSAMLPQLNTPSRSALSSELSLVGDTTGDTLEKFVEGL

The pIC50 is the IC50 on a negative log10 scale, so that one unit is a factor of ten. A low value points to a high IC50. As for `COC(=O)N1c2ccc3c(nc(Cc4ccccc4)n3[C@@H]3CCC[C@H](OC4CCN(c5ccc(C(=O)N[C@H]6CC[C@H](Oc7ccc(C#N)c(Cl)c7)CC6)nn5)CC4)C3)c2CC[C@@H]1C` [Compound 244, methyl (7S)-2-benzyl-3-[3-[[1-[6-[[4-(3-chloro-4-cyano-phenoxy)cyclohexyl]carbamoyl]pyridazin-3-yl]-4-piperidyl]oxy]cyclohexyl]-7-methyl-8,9-dihydro-7H-imidazo[4,5-f]quinoline-6-carboxylate], the pEC50 at AR / CBP ternary complex was above 9.00. In the test on VCaP cells, this molecule gave a pIC50 of 9.00 to 10.00.

Take `CC(=O)N1CCc2c(c(N3CCCc4cc(-c5cnn(C)c5)c(C(F)F)cc43)nn2C2CCN(C3CCC4(CC3)CC(Oc3ccc(C(=O)N[C@H]5CC[C@H](Oc6ccc(C#N)c(Cl)c6)CC5)nn3)C4)CC2)C1` (some centres unmarked) [Compound 245, 6-[7-[4-[5-acetyl-3-[7-(difluoromethyl)-6-(1-methylpyrazol-4-yl)-3,4-dihydro-2H-quinolin-1-yl]-6,7-dihydro-4H-pyrazolo[4,3-c]pyridin-1-yl]-1-piperidyl]spiro[3.5]nonan-2-yl]oxy-N-[4-(3-chloro-4-cyano-phenoxy)cyclohexyl]pyridazine-3-carboxamide]: at AR / CBP ternary complex, the pEC50 was above 9.00. The negative logarithm of the IC50 (pIC50) in the test on VCaP cells was at least 10.00.

As for `CC(=O)N1CCc2c(c(N3CCCc4cc(-c5cnn(C)c5)c(C(F)F)cc43)nn2C2CCC3(CC2)CC(Oc2ccc(C(=O)N[C@H]4CC[C@H](Oc5ccc(C#N)c(C(F)(F)F)c5)CC4)nn2)C3)C1` (some centres unmarked) [Compound 246, 6-[7-[5-acetyl-3-[7-(difluoromethyl)-6-(1-methylpyrazol-4-yl)-3,4-dihydro-2H-quinolin-1-yl]-6,7-dihydro-4H-pyrazolo[4,3-c]pyridin-1-yl]spiro[3.5]nonan-2-yl]oxy-N-[4-[4-cyano-3-(trifluoromethyl)phenoxy]cyclohexyl]pyridazine-3-carboxamide], at AR / CBP ternary complex, the pEC50 is above 9.00. The pIC50 with VCaP cells was 7.00 to 9.00.

Consider `CC(=O)N1CCc2c(c(N3CCCc4cc(-c5cnn(C)c5)c(C(F)F)cc43)nn2C2CCN(C3CC4(CC(Oc5ccc(C(=O)N[C@H]6CC[C@H](Oc7ccc(C#N)c(Cl)c7)CC6)nn5)C4)C3)CC2)C1` (some centres unmarked) [Compound 247, 6-[6-[4-[5-acetyl-3-[7-(difluoromethyl)-6-(1-methylpyrazol-4-yl)-3,4-dihydro-2H-quinolin-1-yl]-6,7-dihydro-4H-pyrazolo[4,3-c]pyridin-1-yl]-1-piperidyl]spiro[3.3]heptan-2-yl]oxy-N-[4-(3-chloro-4-cyano-phenoxy)cyclohexyl]pyridazine-3-carboxamide], for which the pEC50 at AR / CBP ternary complex was above 9.00. The same molecule gave a pIC50 in the test on VCaP cells of at least 10.00.

As to `CC(=O)N1CCc2c(c(N3CCCc4cc(-c5cnn(C)c5)c(C(F)F)cc43)nn2[C@H]2CC[C@H](N3CCC4(CC3)CC(Oc3ccc(C(=O)N[C@H]5CC[C@H](Oc6ccc(C#N)c(Cl)c6)CC5)nn3)C4)CC2)C1` [Compound 248], the pEC50 on AR / CBP ternary complex was above 9.00. In the test on VCaP cells, this molecule showed a negative-log IC50 (pIC50) of 9.00 to 10.00.

For `CC(=O)N1CCc2c(c(N3CCCc4cc(-c5cnn(C)c5)c(C(F)F)cc43)nn2[C@H]2CC[C@H](N3CC4(CC(Oc5ccc(C(=O)N[C@H]6CC[C@H](Oc7ccc(C#N)c(Cl)c7)CC6)nn5)C4)C3)CC2)C1` [Compound 249], at AR / CBP ternary complex, the pEC50 is above 9.00. In addition, the pIC50 in the test on VCaP cells was at least 10.00.

Take `CC(=O)N1CCc2c(c(N3CCCc4cc(-c5cnn(C)c5)c(C(F)F)cc43)nn2[C@H]2CC[C@H](N3CCN(c4ccc(C(=O)N[C@H]5CC[C@H](Oc6ccc(C#N)c(Cl)c6)CC5)nn4)CC3)CC2)C1` [Compound 250, 6-[4-[4-[5-acetyl-3-[7-(difluoromethyl)-6-(1-methylpyrazol-4-yl)-3,4-dihydro-2H-quinolin-1-yl]-6,7-dihydro-4H-pyrazolo[4,3-c]pyridin-1-yl]cyclohexyl]piperazin-1-yl]-N-[4-(3-chloro-4-cyano-phenoxy)cyclohexyl]pyridazine-3-carboxamide]: at AR / CBP ternary complex, the pEC50 was above 9.00. This molecule also had a pIC50 with VCaP cells of at least 10.00.
